According to patent US20210045385A1, “PYRIDAZINONE-SUBSTITUTED KETOXIMES AS HERBICIDES” (FMC Corporation, priority 2018, published 2021):

Experiments:
Type in all cases: in vivo
[1] = system: foxtail, giant (giant foxtail, Setaria faberi); assay: Test C preemergence, visual plant response rating; conditions: Test C, 0 is no effect, 100 is complete control
Procedure, shortened: (§1)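 Visual injury on a 0 (no effect) to 100 (complete control) scale versus untreated controls, scored approximately 10 d after treatment under greenhouse conditions. Treatments used surfactant-containing non-phytotoxic solvent formulations, sprayed onto loam–sand soil preemergence or onto one- to two-leaf plants 2–10 cm tall postemergence.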

[2] = system: Italian ryegrass (Lolium mutiflorum); assay: Test C preemergence, visual plant response rating; conditions: Test C, 0 is no effect, 100 is complete control
Procedure, shortened: as §1

[3] = system: ragweed (common ragweed, Ambrosia artemisiifolia); assay: Test C preemergence, visual plant response rating; conditions: Test C, 0 is no effect, 100 is complete control
Procedure, shortened: as §1

[4] = system: pigweed (Amaranthus retroflexus); assay: Test C preemergence, visual plant response rating; conditions: Test C, 0 is no effect, 100 is complete control
Procedure, shortened: as §1

[5] = system: barnyardgrass (Echinochloa crus-galli); assay: Test C preemergence, visual plant response rating; conditions: Test C, 0 is no effect, 100 is complete control
Procedure, shortened: as §1

kochia (Bassia scoparia) [6] = assay: Test C preemergence, visual plant response rating; conditions: Test C, 0 is no effect, 100 is complete control
Procedure, shortened: as §1

[7] = system: duck salad (Heteranthera limosa); assay: Test D flooded paddy test, visual plant response rating; conditions: 250 g ai/ha, scale 0 to 100 (0 no effect, 100 complete control), 13 to 15 d
Procedure, shortened: (§2)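 Rating is visual, on a 0 (no effect) to 100 (complete control) scale versus controls, taken 13 to 15 d after treatment in a greenhouse. Treatment went into paddy water kept 3 cm above the soil surface, with plants at the 2-leaf stage.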

rice (Oryza sativa) = assay: as above; conditions: 250 g ai/ha, scale 0 to 100 (0 no effect, 100 complete control), 13 to 15 d
Procedure, shortened: as §2

[8] = system: barnyardgrass (Echinochloa crus-galli); assay: as above; conditions: 250 g ai/ha, scale 0 to 100 (0 no effect, 100 complete control), 13 to 15 d
Procedure, shortened: as §2

[9] = system: sedge umbrella (small-flower umbrella sedge, Cyperus difformis); assay: as above; conditions: 250 g ai/ha, scale 0 to 100 (0 no effect, 100 complete control), 13 to 15 d
Procedure, shortened: as §2

[10] = system: galium (catchweed bedstraw, Galium aparine); assay: Test C postemergence, visual plant response rating
Procedure, shortened: as §1

[11] = system: foxtail, giant (giant foxtail, Setaria faberi); assay: Test C postemergence, visual plant response rating
Procedure, shortened: as §1

[12] = system: Italian ryegrass (Lolium mutiflorum); assay: Test C postemergence, visual plant response rating
Procedure, shortened: as §1

[13] = system: wheat (Triticum aestivum); assay: Test C postemergence, visual plant response rating
Procedure, shortened: as §1

[14] = system: ragweed (common ragweed, Ambrosia artemisiifolia); assay: Test C postemergence, visual plant response rating
Procedure, shortened: as §1

corn (Zea mays) = assay: Test C postemergence, visual plant response rating
Procedure, shortened: as §1

[15] = system: blackgrass (Alopecurus myosuroides); assay: Test C postemergence, visual plant response rating
Procedure, shortened: as §1

[16] = system: pigweed (Amaranthus retroflexus); assay: Test C postemergence, visual plant response rating
Procedure, shortened: as §1

[17] = system: barnyardgrass (Echinochloa crus-galli); assay: Test C postemergence, visual plant response rating
Procedure, shortened: as §1

kochia (Bassia scoparia) [18] = assay: Test C postemergence, visual plant response rating
Procedure, shortened: as §1

[19] = Test C, postemergence, 125 g ai/ha

SMILES | Foxtail, Giant plant response rating (0 to 100 scale) ([1]; 31 g ai/ha) | Foxtail, Giant plant response rating (0 to 100 scale) ([1]; 125 g ai/ha) | Ryegrass, Italian plant response rating (0 to 100 scale) ([2]; 31 g ai/ha) | Ryegrass, Italian plant response rating (0 to 100 scale) ([2]; 125 g ai/ha) | Ragweed plant response rating (0 to 100 scale) ([3]; 31 g ai/ha) | Ragweed plant response rating (0 to 100 scale) ([3]; 125 g ai/ha) | Pigweed plant response rating (0 to 100 scale) ([4]; 31 g ai/ha) | Pigweed plant response rating (0 to 100 scale) ([4]; 125 g ai/ha) | Barnyardgrass plant response rating (0 to 100 scale) ([5]; 31 g ai/ha) | Barnyardgrass plant response rating (0 to 100 scale) ([5]; 125 g ai/ha) | Kochia plant response rating (0 to 100 scale) (kochia (Bassia scoparia) [6]; 31 g ai/ha) | Kochia plant response rating (0 to 100 scale) (kochia (Bassia scoparia) [6]; 125 g ai/ha) | Plant response rating, Ducksalad (Flood) [7] | Plant response rating, Rice (Flood) (rice (Oryza sativa)) | Plant response rating, Barnyardgrass (Flood) [8] | Plant response rating, Sedge, Umbrella (Flood) [9] | Galium plant response rating (0 to 100 scale) ([10]; Postemergence, 31 g ai/ha) | Galium plant response rating (0 to 100 scale) [10, 19] | Foxtail, Giant plant response rating (0 to 100 scale) ([11]; Postemergence, 31 g ai/ha) | Foxtail, Giant plant response rating (0 to 100 scale) [11, 19] | also measured
CO/N=C(/c1c(O)c(C)nn(C)c1=O)c1cccc2cc(SC)ccc12 [Compound 297] | 0 | 0 | 0 | 0 | 0 | 0 | 0 | 0 | 0 | 0 | 0 | 0 | 0 | 0 | 0 | 0 | 0 | 0 | 0 | 0 | Ryegrass, Italian plant response rating (0 to 100 scale) ([12]; Postemergence, 31 g ai/ha): 0; Ryegrass, Italian plant response rating (0 to 100 scale) [12, 19]: 0; Wheat plant response rating (0 to 100 scale) ([13]; Postemergence, 31 g ai/ha): 0; Wheat plant response rating (0 to 100 scale) [13, 19]: 0; Ragweed plant response rating (0 to 100 scale) ([14]; Postemergence, 31 g ai/ha): 0; Ragweed plant response rating (0 to 100 scale) [14, 19]: 0; Corn plant response rating (0 to 100 scale) (corn (Zea mays); Postemergence, 31 g ai/ha): 0; Corn plant response rating (0 to 100 scale) (corn (Zea mays); [19]): 0; Blackgrass plant response rating (0 to 100 scale) ([15]; Postemergence, 31 g ai/ha): 0; Blackgrass plant response rating (0 to 100 scale) [15, 19]: 0; Pigweed plant response rating (0 to 100 scale) ([16]; Postemergence, 31 g ai/ha): 0; Pigweed plant response rating (0 to 100 scale) [16, 19]: 0; Barnyardgrass plant response rating (0 to 100 scale) ([17]; Postemergence, 31 g ai/ha): 0; Barnyardgrass plant response rating (0 to 100 scale) [17, 19]: 0; Kochia plant response rating (0 to 100 scale) (kochia (Bassia scoparia) [18]; Postemergence, 31 g ai/ha): 0; Kochia plant response rating (0 to 100 scale) (kochia (Bassia scoparia) [18]; [19]): 0
CO/N=C(/c1c(O)c(C)nn(C)c1=O)c1cccc2cc(Cl)ccc12 [Compound 301] | 20 | 80 | 0 | 30 | 0 | 0 | 0 | 20 | 0 | 40 | 0 | 0 | 0 | 0 | 0 | 0 | 70 | 90 | 40 | 70 | Ryegrass, Italian plant response rating (0 to 100 scale) ([12]; Postemergence, 31 g ai/ha): 0; Ryegrass, Italian plant response rating (0 to 100 scale) [12, 19]: 10; Wheat plant response rating (0 to 100 scale) ([13]; Postemergence, 31 g ai/ha): 0; Wheat plant response rating (0 to 100 scale) [13, 19]: 0; Ragweed plant response rating (0 to 100 scale) ([14]; Postemergence, 31 g ai/ha): 10; Ragweed plant response rating (0 to 100 scale) [14, 19]: 30; Corn plant response rating (0 to 100 scale) (corn (Zea mays); Postemergence, 31 g ai/ha): 0; Corn plant response rating (0 to 100 scale) (corn (Zea mays); [19]): 20; Blackgrass plant response rating (0 to 100 scale) ([15]; Postemergence, 31 g ai/ha): 0; Blackgrass plant response rating (0 to 100 scale) [15, 19]: 60; Pigweed plant response rating (0 to 100 scale) ([16]; Postemergence, 31 g ai/ha): 50; Pigweed plant response rating (0 to 100 scale) [16, 19]: 70; Barnyardgrass plant response rating (0 to 100 scale) ([17]; Postemergence, 31 g ai/ha): 20; Barnyardgrass plant response rating (0 to 100 scale) [17, 19]: 40; Kochia plant response rating (0 to 100 scale) (kochia (Bassia scoparia) [18]; Postemergence, 31 g ai/ha): 0; Kochia plant response rating (0 to 100 scale) (kochia (Bassia scoparia) [18]; [19]): 30
